These results are taken from patent US20250066365A1, “Ribonucleoside Analogues Against -Sars-Cov-2” (priority 2021, published 2025).

The subject of data set [1] is SARS-CoV-2 USA_WA1/2020 strain. The data set is described as follows: microbe, parasite or virus in culture. The class given is cell-based.
Data set [2] is described as follows: in vitro. The settings on record: African green monkey.
The subject of data set [3] is SARS-CoV-2 USA_WA1/2020 strain. Description: Activity against SARS-CoV-2 in Vero E6 cells (cytopathic effect, visual and neutral red). The class given is cell-based. The settings on record: read-out: EC50 (mM/mL) USA_WA1/2020 strain.
Data set [4] in a line: in vitro. The settings on record: African green monkey. The source holds these as a separate data set.
For another data set, the target named is SARS-CoV-2 nsp14 (Severe acute respiratory syndrome coronavirus 2, UniProt P0DTD1). The settings on record: cited from earlier work.
[5] abbreviates: Severe acute respiratory syndrome coronavirus 2, Vero 76, Neutral red (Cytopathic effect/Toxicity), Vero 76 cells, read-out: EC50 (mg/mL) USA_WA1/2020 strain.
Where [6] appears, read: Severe acute respiratory syndrome coronavirus 2, Vero 76, Visual (Cytopathic effect/Toxicity), Vero 76 cells, read-out: EC50 (mg/mL) USA_WA1/2020 strain.
[7] abbreviates: CC50 (mg/mL) Vero 76, Neutral red (Cytopathic effect/Toxicity).
Where [8] appears, read: CC50 (mg/mL) Vero 76, Visual (Cytopathic effect/Toxicity).
The mark [9] stands for this setting: Severe acute respiratory syndrome coronavirus 2, Vero C1008, Neutral red (Cytopathic effect/Toxicity).
Setting [10] is: Severe acute respiratory syndrome coronavirus 2, Vero C1008, Visual (Cytopathic effect/Toxicity).
Setting [11] is: CC50 (mM/mL) Vero E6, Neutral red (Cytopathic effect/Toxicity).
Setting [12] is: CC50 (mM/mL) Vero E6, Visual (Cytopathic effect/Toxicity).

Values after ≈ are worked out from the molar mass of the structure shown. Some results are limits rather than exact numbers.

One may read the CC50 as the concentration that lowers cell viability or growth by half.

Take `C=Cc1cc([C@@H]2O[C@H](CO)[C@@H](O)[C@H]2O)n2ncnc(N)c12` [Compound 4.2a, 7-Vinyl-4-aza-7,9-dideazaadenosine]: the EC50 in data set [1] (setting [5]) is 0.00016 mg/mL (≈ 0.547 µM); in data set [1] (Severe acute respiratory syndrome coronavirus 2, Vero 76, Vero 76 cells, read-out: EC50 against SARS-CoV-2), 0.00016 mg/mL (≈ 0.547 µM); in data set [1] (setting [6]), < 0.0001 mg/mL. Further, the “activity against SARS-CoV-2 (in words)” value in data set [1] (Vero 76 cells) is “active”. For the same compound, the “cytotoxicity (in words)” value with Vero 76 cells is listed as “significant cytotoxicity”. In addition, the half-maximal cytotoxic concentration (CC50) in “in vitro [2]” (setting [7]) was 4.7 µg/mL (≈ 16.1 µM); in “in vitro [2]” (setting [8]) it was 3.2 µg/mL (≈ 10.9 µM).

Take `Nc1ncnn2c([C@@H]3O[C@H](CO)[C@@H](O)[C@H]3O)cc(/C=C/c3ccccn3)c12` [Compound 4.2b, 7-((E)-2-(Pyridin-2-yl)vinyl)-4-aza-7,9-dideazaadenosine]: the values for the EC50 in data set [1] (setting [5]) and in data set [1] (setting [6]) were < 0.0001 mg/mL and > 0.00032 mg/mL, respectively. For the same compound, the “cytotoxicity (in words)” value with Vero 76 cells is on record as “potent cytotoxicity”. Also, the CC50 in “in vitro [2]” (setting [7]) and in “in vitro [2]” (setting [8]) was 0.32 µg/mL (≈ 0.866 µM) each time.

As to `Cc1ccc(/C=C/c2cc([C@@H]3O[C@H](CO)[C@@H](O)[C@H]3O)n3ncnc(N)c23)cc1` [Compound 4.2c, 7-((E)-4-Methylstyryl)-4-aza-7,9-dideazaadnosine], the “EC50 against SARS-CoV-2” value in data set [1] stood at 0.3 µg/mL (≈ 0.784 µM). Further, the “activity against SARS-CoV-2 (in words)” value in data set [1] (Vero 76 cells) is listed as “potent antiviral activity”.

`Nc1ncnn2c([C@@H]3O[C@H](CO)[C@@H](O)[C@H]3O)cc(/C=C/c3ccc(F)cc3)c12` [Compound 4.2d, 7-((E)-4-Fluorostyryl)-4-aza-7,9-dideazaadenosine]: the EC50 was > 0.0058 mg/mL in data set [1] (setting [5]) and > 0.0032 mg/mL in data set [1] (setting [6]). The half-maximal cytotoxic concentration (CC50) in “in vitro [2]” (setting [7]) came out at 5.8 µg/mL (≈ 15 µM); in “in vitro [2]” (setting [8]), 3.2 µg/mL (≈ 8.28 µM).

As for `Nc1ncnn2c([C@@H]3O[C@H](CO)[C@@H](O)[C@H]3O)cc(/C=C/c3ccc(C(F)(F)F)cc3)c12` [Compound 4.2e, 7-((E)-4-(Trifluoromethyl)styryl)-4-aza-7,9-dideazaadenosine], the EC50 in data set [1] (setting [5]) and in data set [1] (setting [6]) was > 0.032 mg/mL throughout. For the same compound, in data set [1] (Vero 76 cells), the “activity against SARS-CoV-2 (in words)” value is “inactive”. The half-maximal cytotoxic concentration (CC50) in the data set “in vitro [2]” (setting [7]) and in “in vitro [2]” (setting [8]) was 32 µg/mL (≈ 73.3 µM) each time.

Take `Nc1ncnn2c([C@@H]3O[C@H](CO)[C@@H](O)[C@H]3O)cc(/C=C/c3ccc(Cl)cc3)c12` [Compound 4.2f, 7-((E)-4-Chlorostyryl)-4-aza-7,9-dideazaadenosine]: the EC50 in data set [3] (setting [9]) and in data set [3] (setting [10]) was > 0.032 mM each time. Also, the half-maximal cytotoxic concentration (CC50) in the data set “in vitro [4]” (setting [11]) and in the data set “in vitro [4]” (setting [12]) was 0.032 mM throughout.

As to `Nc1ncnn2c([C@@H]3O[C@H](CO)[C@@H](O)[C@H]3O)cc(/C=C/c3cccc(F)c3)c12` [Compound 4.2g, 7-((E)-3-Fluorostyryl)-4-aza-7,9-dideazaadenosine], the EC50 in data set [3] (setting [9]) and in data set [3] (setting [10]) was > 0.032 mM in each case. For the same compound, the CC50 in the data set “in vitro [4]” (setting [11]) and in the data set “in vitro [4]” (setting [12]) was 0.032 mM each time.

On to `Nc1ncnn2c([C@@H]3O[C@H](CO)[C@@H](O)[C@H]3O)cc(/C=C/C3CC3)c12` [Compound 4.2h, 7-((E)-2-Cyclopropylvinyl)-4-aza-7,9-dideazaadenosine], for which the EC50 in data set [3] (setting [9]) and in data set [3] (setting [10]) was > 0.1 mM throughout. Also, the CC50 in “in vitro [4]” (setting [11]) and in “in vitro [4]” (setting [12]) was > 0.1 mM in each case.

In the case of `Nc1ncnn2c([C@@H]3O[C@H](CO)[C@@H](O)[C@H]3O)cc(/C=C/C3CCCC3)c12` [Compound 4.2i, 7-((E)-2-Cyclopentylvinyl)-4-aza-7,9-dideazaadenosine], the EC50 in data set [3] (setting [9]) and in data set [3] (setting [10]) was > 0.1 mM throughout. In addition, the CC50 in “in vitro [4]” (setting [11]) and in the data set “in vitro [4]” (setting [12]) was > 0.1 mM throughout.

As to `Nc1ncnn2c([C@@H]3O[C@H](CO)[C@@H](O)[C@H]3O)cc(/C=C/c3cccs3)c12` [Compound 4.2j, 7-((E)-2-(Thiophen-2-yl)vinyl)-4-aza-7,9-dideazaadenosine], the EC50 in data set [3] (setting [9]) is > 0.032 mM; in data set [3] (setting [10]), > 0.028 mM. Moreover, the CC50 in the data set “in vitro [4]” (setting [11]) is 0.032 mM; in the data set “in vitro [4]” (setting [12]) it was 0.028 mM.

Turning to `Nc1ncnn2c([C@@H]3O[C@H](CO)[C@@H](O)[C@H]3O)cc(/C=C/c3ccsc3)c12` [Compound 4.2k, 7-((E)-2-(Thiophen-3-yl)vinyl)-4-aza-7,9-dideazaadenosine], the values for the EC50 in data set [3] (setting [9]) and in data set [3] (setting [10]) were > 0.0031 mM and > 0.0032 mM, respectively. Also, the CC50 in the data set “in vitro [4]” (setting [11]) is 0.0031 mM; in “in vitro [4]” (setting [12]), 0.0032 mM.

Regarding `Nc1ncnn2c([C@@H]3O[C@H](CO)[C@@H](O)[C@H]3O)cc(/C=C/C3CCCCC3)c12` [Compound 4.2l, 7-((E)-2-Cyclohexylvinyl)-4-aza-7,9-dideazaadenosine], the EC50 in data set [3] (setting [9]) and in data set [3] (setting [10]) was > 0.1 mM throughout. The CC50 in “in vitro [4]” (setting [11]) and in “in vitro [4]” (setting [12]) was > 0.1 mM throughout.

For `CCC/C=C/c1cc([C@@H]2O[C@H](CO)[C@@H](O)[C@H]2O)n2ncnc(N)c12` [Compound 4.2m, 7-((E)-pent-1-en-1-yl)-4-aza-7,9-dideazaadenosine], the EC50 in data set [3] (setting [9]) and in data set [3] (setting [10]) was > 0.1 mM in each case. The half-maximal cytotoxic concentration (CC50) in the data set “in vitro [4]” (setting [11]) and in “in vitro [4]” (setting [12]) was > 0.1 mM in each case.

Regarding `Nc1ncnc2c1ncn2[C@@H]1O[C@H](CSCCNC(=O)NCCc2ccccc2)[C@@H](O)[C@H]1O` [DS0464], the “concentration range of nsp14 inhibition (in words)” value at SARS-CoV-2 nsp14 is given as “low-micromolar”.

Turning to `N#Cc1cn([C@@H]2O[C@H](CSCC[C@H](N)C(=O)O)C(O)[C@@H]2O)c2ncnc(N)c12` (stereo partly drawn) [SS148], at SARS-CoV-2 nsp14, the “concentration range of nsp14 inhibition (in words)” value was “submicromolar to nanomolar”.
